Source: patent publication US20100144819A1, “Synergistic Methods for Control of Pests” (FMC A[…]. LTD., priority 2008, published 2010)

Legend:
[1] = tested on: German cockroach (Blatella germanica); test: German cockroach mortality on treated filter paper; type: in vivo, Blattella germanica; settings: 24 h
Description: (§1) The presence of a synergistic effect between the two active ingredients is established with the aid of the Colby equation (see Colby, S. R., “Calculating Synergistic and Antagonistic Responses of Herbicide Combinations”, Weeds 1967, 15, pg 20-22): E=X+Y−(XY/100).
(§2) Using the method of Colby, the presence of asynergistic interaction between two active ingredients is established by first calculating the expected activity, ‘E’, of the mixture based on activities of the two components applied alone. If ‘E’ is lower than the observed activity, synergy is present. In the equation above, ‘X’ is the percentage control observed when bifenthrin applied alone at rate ‘x’. The ‘Y’ term is percentage control observed when fipronil applied alone at rate ‘y’. The equation calculates ‘E’, the expected activity of the mixture of ‘X’ at rate ‘x’ with ‘Y’ at rate ‘y’ if their effects are strictly additive and no interaction has occurred.
The compositions of the present invention were tested for German cockroach (Blatella germanica) activity in the following manner.
Test solutions were made by dissolving technical grade bifenthrin and fipronil in acetone to provide appropriate rates of application of bifenthrin and fipronil alone, as well as combinations of bifenthrin and fipronil. The active ingredient concentrations tested were from 50 parts per million (0.05 mg of active ingredient/mL or 0.05 g/L) to 500 parts per million (0.5 mg of active ingredient/mL or 0.5 g/L), four replicates per rate. In a fume cabinet, one milliliter of a test solution was applied to a 9 cm Whatman® 2 qualitative filter paper using a calibrated pipette. The application started at the center of the filter paper with individual drops being applied in an outward circular motion so that the entire filter paper was uniformly treated. Acetone only (one mL) was applied in the same manner to provide an untreated control (UTC). The treated filter papers were allowed to dry for two hours. The dried, treated or untreated filter paper was placed into a plastic Petri dish and ten late instar, healthy and active German cockroaches (Blattella germanica) were momentarily immobilized using carbon dioxide and then placed onto the filter paper. The lid of each Petri dish was put on to contain the cockroaches. The Petri dishes were maintained at a temperature of 25° C. to 30° C. at ambient relative humidity out of direct sunlight. German cockroach mortality was assessed after 24 hours by counting the number of alive and the number of knocked down/dead cockroaches.
(§3) In order to compare the pesticidal effectiveness of the individual and combination treatments the LC 50 and LC 90 values (lethal concentration in ppm that would effectively knock down/kill 50% or 90% of the test pests) were calculated. In calculating the LC values for the various mixtures of bifenthrin and fipronil, probit analysis was conducted on the fipronil concentration of the mixture. […] The values calculated from the data of Table 1 are in Table 1A below.

[2] = tested on: American cockroach (Periplaneta americana); test: American cockroach mortality on treated filter paper; type: in vivo; settings: 24 h
Description: as §1, §2
The compositions of the present invention were tested for American cockroach (Periplaneta americana) activity in the following manner:
Test solutions were made by dissolving technical grade bifenthrin and fipronil in acetone to provide appropriate rates of application of bifenthrin and fipronil alone, as well as combinations of bifenthrin and fipronil. The active ingredient concentrations tested were from 10 part per million (0.01 mg of active ingredient/mL or 0.01 g/L) to 1000 parts per million (1.0 mg of active ingredient/mL or 1.0 g/L), four replicates per rate. In a fume cabinet, one milliliter of a test solution was applied to a 9 cm Whatman® 2 qualitative filter paper using a calibrated pipette. The application started at the center of the filter paper with individual drops being applied in an outward circular motion so that the entire filter paper was uniformly treated. Acetone only (one mL) was applied in the same manner to provide an untreated control (UTC). The treated filter papers were allowed to dry for two hours. The dried, treated or untreated filter paper was placed into a plastic cup having a base diameter of 90 mm, in which the upper portion of the walls of the plastic cup were coated with a fluoropolymer resin (PFTE-30) insect barrier (Fluoron® available from BioQuip Products Inc.) to prevent the insects from climbing out of the container. Ten late instar, healthy and active American cockroaches (Periplaneta americana) were momentarily immobilized using carbon dioxide and then placed onto the filter paper. The top of the plastic containers were covered with gauze to contain the cockroaches. The plastic containers were maintained at a temperature of 25° C. to 30° C. at ambient relative humidity out of direct sunlight. American cockroach mortality was assessed after 24 hours by counting the number of alive and the number of knocked down/dead cockroaches.
as §3, with “the bifenthrin in” for “the fipronil”, “Table 2” for “Table 1”, “Table 2A” for “Table 1A”

[3] = tested on: black house spider (Badumna insignis); test: Black house spider mortality on treated pine plywood; type: in vivo; settings: suspension concentrate diluted in water, 24 h
Description: as §1, §2
The compositions of the present invention were tested for black house spider (Badumna insignis) activity in the following manner:
Formulations of the test compounds were made as follows: • 1).
The testing was conducted on pine plywood surfaces that had dimensions of 20 cm×20 cm. The above formulations were diluted in water to achieve the desired concentration rate in grams of active ingredient per liter prior to application to the pine plywood. Each treatment was applied using an airbrush sprayer and compressed air as the propellant. The equipment was calibrated prior to use and the treatments were applied to the pine plywood surfaces at a rate of 1 L/10 m^2 (4 mL of final test solution per 20 cm×20 cm pine plywood surface)'. For example, in order to obtain a application rate of […] of active ingredient per 10 m^2, 1.25 mL of the fipronil formulation 1) which contained 100 gram per liter suspension concentrate formulation of fipronil, was diluted in 1 liter of water to make a final test solution. Four mL of the final test solution was sprayed onto the pine plywood surface. The treated pine plywood was allowed to air dry at ambient temperature by storing horizontally away from direct sunlight. Three black house spiders, medium to large in size collected from the field 1 to 2 days prior to testing, were placed separately under untreated portion cups (7 cm diameter by 7 cm deep) on the treated pine plywood surfaces. The untreated portion cups provided an opportunity for the spiders to seek an untreated area. The spiders were assessed after 24 hours exposure by counting the number of alive and the number of knocked down/dead spiders. There were three replications of each treatment.

[4] = probit analysis of Table 1 data, mixtures as bifenthrin:fipronil
[5] = probit analysis of Table 2 data, mixtures as bifenthrin:fipronil

For `N#Cc1nn(-c2c(Cl)cc(C(F)(F)F)cc2Cl)c(N)c1[S+]([O-])C(F)(F)F` [Fipronil, (5-amino-[2,6-dichloro-4(trifluoromethyl)phenyl]-4-[(1R,S)-(trifluoromethyl)sulfinyl]-1H-pyrazole-3-carbonitrile], the “% Observed Control” value ([1]; 50 ppm (0.05 mg/mL)) was 22.5%, the “Mortality Rep 1 dead/alive” value ([1]; 50 ppm (0.05 mg/mL)) was 7/3 and the “Mortality Rep 2 dead/alive” value ([1]; 50 ppm (0.05 mg/mL)) was 1/9. The “Mortality Rep 3 dead/alive” value ([1]; 50 ppm (0.05 mg/mL)) was 0/10, the “Mortality Rep 4 dead/alive” value ([1]; 50 ppm (0.05 mg/mL)) was 1/9 and the “% Observed Control” value ([1]; 100 ppm (0.1 mg/mL)) was 42.5%. The “Mortality Rep 1 dead/alive” value ([1]; 100 ppm (0.1 mg/mL)) was 6/4, the “Mortality Rep 2 dead/alive” value ([1]; 100 ppm (0.1 mg/mL)) was 3/7 and the “Mortality Rep 3 dead/alive” value ([1]; 100 ppm (0.1 mg/mL)) was 4/6. For the same compound, the “Mortality Rep 4 dead/alive” value ([1]; 100 ppm (0.1 mg/mL)) was 4/6, the “% Observed Control” value ([1]; 250 ppm (0.25 mg/mL)) was 100% and the “Mortality Rep 1 dead/alive” value ([1]; 250 ppm (0.25 mg/mL)) was 10/0. The “Mortality Rep 2 dead/alive” value ([1]; 250 ppm (0.25 mg/mL)) was 10/0, the “Mortality Rep 3 dead/alive” value ([1]; 250 ppm (0.25 mg/mL)) was 10/0 and the “Mortality Rep 4 dead/alive” value ([1]; 250 ppm (0.25 mg/mL)) was 10/0. The “% Observed Control” value ([1]; 500 ppm (0.5 mg/mL)) was 100%, the “Mortality Rep 1 dead/alive” value ([1]; 500 ppm (0.5 mg/mL)) was 10/0 and the “Mortality Rep 2 dead/alive” value ([1]; 500 ppm (0.5 mg/mL)) was 10/0. For the same compound, the “Mortality Rep 3 dead/alive” value ([1]; 500 ppm (0.5 mg/mL)) was 10/0, the “Mortality Rep 4 dead/alive” value ([1]; 500 ppm (0.5 mg/mL)) was 10/0 and the “LC 50” value [1, 4] was 102 ppm. For the same compound, the “LC 90” value [1, 4] was 179 ppm, the “% Observed Control” value ([2]; 10 ppm (0.01 mg/mL)) was 0% and the “Mortality Rep 1 dead/alive” value ([2]; 10 ppm (0.01 mg/mL)) was 0/10. For the same compound, the “Mortality Rep 2 dead/alive” value ([2]; 10 ppm (0.01 mg/mL)) was 0/10, the “Mortality Rep 3 dead/alive” value ([2]; 10 ppm (0.01 mg/mL)) was 0/10 and the “Mortality Rep 4 dead/alive” value ([2]; 10 ppm (0.01 mg/mL)) was 0/10. The “% Observed Control” value ([2]; 20 ppm (0.02 mg/mL)) was 0%, the “Mortality Rep 1 dead/alive” value ([2]; 20 ppm (0.02 mg/mL)) was 0/10 and the “Mortality Rep 2 dead/alive” value ([2]; 20 ppm (0.02 mg/mL)) was 0/10. For the same compound, the “Mortality Rep 3 dead/alive” value ([2]; 20 ppm (0.02 mg/mL)) was 0/10, the “Mortality Rep 4 dead/alive” value ([2]; 20 ppm (0.02 mg/mL)) was 0/10 and the “% Observed Control” value ([2]; 25 ppm (0.025 mg/mL)) was 0%. For the same compound, the “Mortality Rep 1 dead/alive” value ([2]; 25 ppm (0.025 mg/mL)) was 0/10, the “Mortality Rep 2 dead/alive” value ([2]; 25 ppm (0.025 mg/mL)) was 0/10 and the “Mortality Rep 3 dead/alive” value ([2]; 25 ppm (0.025 mg/mL)) was 0/10. The “Mortality Rep 4 dead/alive” value ([2]; 25 ppm (0.025 mg/mL)) was 0/10, the “% Observed Control” value ([2]; 50 ppm (0.05 mg/mL)) was 0% and the “Mortality Rep 1 dead/alive” value ([2]; 50 ppm (0.05 mg/mL)) was 0/10. The “Mortality Rep 2 dead/alive” value ([2]; 50 ppm (0.05 mg/mL)) was 0/10, the “Mortality Rep 3 dead/alive” value ([2]; 50 ppm (0.05 mg/mL)) was 0/10 and the “Mortality Rep 4 dead/alive” value ([2]; 50 ppm (0.05 mg/mL)) was 0/10. The “% Observed Control” value ([2]; 100 ppm (0.1 mg/mL)) was 2.5%, the “Mortality Rep 1 dead/alive” value ([2]; 100 ppm (0.1 mg/mL)) was 0/10 and the “Mortality Rep 2 dead/alive” value ([2]; 100 ppm (0.1 mg/mL)) was 0/10. For the same compound, the “Mortality Rep 3 dead/alive” value ([2]; 100 ppm (0.1 mg/mL)) was 0/10, the “Mortality Rep 4 dead/alive” value ([2]; 100 ppm (0.1 mg/mL)) was 1/9 and the “% Observed Control” value ([2]; 125 ppm (0.125 mg/mL)) was 2.5%. For the same compound, the “Mortality Rep 1 dead/alive” value ([2]; 125 ppm (0.125 mg/mL)) was 0/10, the “Mortality Rep 2 dead/alive” value ([2]; 125 ppm (0.125 mg/mL)) was 0/10 and the “Mortality Rep 3 dead/alive” value ([2]; 125 ppm (0.125 mg/mL)) was 0/10. The “Mortality Rep 4 dead/alive” value ([2]; 125 ppm (0.125 mg/mL)) was 1/9, the “% Observed Control” value ([2]; 200 ppm (0.2 mg/mL)) was 2.5% and the “Mortality Rep 1 dead/alive” value ([2]; 200 ppm (0.2 mg/mL)) was 0/10. The “Mortality Rep 2 dead/alive” value ([2]; 200 ppm (0.2 mg/mL)) was 0/10, the “Mortality Rep 3 dead/alive” value ([2]; 200 ppm (0.2 mg/mL)) was 1/9 and the “Mortality Rep 4 dead/alive” value ([2]; 200 ppm (0.2 mg/mL)) was 0/10. For the same compound, the “% Observed Control” value ([2]; 250 ppm (0.25 mg/mL)) was 45%, the “Mortality Rep 1 dead/alive” value ([2]; 250 ppm (0.25 mg/mL)) was 0/10 and the “Mortality Rep 2 dead/alive” value ([2]; 250 ppm (0.25 mg/mL)) was 8/2. The “Mortality Rep 3 dead/alive” value ([2]; 250 ppm (0.25 mg/mL)) was 7/3, the “Mortality Rep 4 dead/alive” value ([2]; 250 ppm (0.25 mg/mL)) was 3/7 and the “% Observed Control” value ([2]; 500 ppm (0.5 mg/mL)) was 45%. For the same compound, the “Mortality Rep 1 dead/alive” value ([2]; 500 ppm (0.5 mg/mL)) was 1/9, the “Mortality Rep 2 dead/alive” value ([2]; 500 ppm (0.5 mg/mL)) was 8/2 and the “Mortality Rep 3 dead/alive” value ([2]; 500 ppm (0.5 mg/mL)) was 5/5. The “Mortality Rep 4 dead/alive” value ([2]; 500 ppm (0.5 mg/mL)) was 4/6, the “LC 50” value [2, 5] was 1013 ppm and the “LC 90” value [2, 5] was 1742 ppm. For the same compound, the “Observed % Control” value ([3]; 0.125 g ai/L at 1 L/10 m^2) was 0.0%, the “Observed % Control” value ([3]; 0.25 g ai/L at 1 L/10 m^2) was 0.0% and the “Observed % Control” value ([3]; 0.5 g ai/L at 1 L/10 m^2) was 0.0%.
